Where two headings read alike, the source gives them in different places.
Assays:
[1] = biological target: His6‐FraB (Salmonella FraB deglycase) (Salmonella enterica subsp. enterica serovar Typhimurium, UniProt Q8ZLD0); assay: FraB-G6PD coupled assay, Michaelis–Menten analysis for K I and mode of inhibition; format: biochemical; conditions: for change of IC50 values with increasing [S]/K m: 'this trend' = IC50 does not vary with [S]/K m, change evident only from 0.2 to 1.6× [S]/K m; for slope in plots of 1/IC50 vs. v o/V max: Fig. S12; for mode of inhibition: kinetic analyses (Lineweaver‐Burk, α′ vs [I], IC50 vs [S]/K m, 1/IC50 vs v o/V max)
His6‐FraB (Salmonella FraB deglycase), sequence (Q8ZLD0 entry or part of it): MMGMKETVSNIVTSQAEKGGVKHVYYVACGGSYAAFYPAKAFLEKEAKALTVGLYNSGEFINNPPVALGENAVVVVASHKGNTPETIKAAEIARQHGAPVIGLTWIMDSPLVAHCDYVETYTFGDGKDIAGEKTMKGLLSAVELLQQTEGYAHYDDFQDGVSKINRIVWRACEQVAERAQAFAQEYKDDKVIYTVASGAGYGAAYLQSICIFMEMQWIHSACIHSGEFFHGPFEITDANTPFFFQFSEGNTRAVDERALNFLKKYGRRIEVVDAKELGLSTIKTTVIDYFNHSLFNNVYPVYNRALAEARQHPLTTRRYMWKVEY
Protocol: To determine the K I of each inhibitor, 29 μL of master mix was added to two rows of a 384‐well Greiner plate, using a single‐channel pipette, and incubated at 20 °C for 20 min. A 12‐channel pipette was then used to transfer and mix 1 μL of varying [6‐P‐F‐Asp] to all 48 wells. The final reaction (30 μL) consisted of 25 mM HEPES pH 8.0 at 20 °C, 5 mM MgCl2, 0.1 mM EGTA, 0.5 mM NAD^+, 1 mU G6PD, 100 nM His6‐FraB, varying (6‐P‐F‐Asp) (between 8 and 12 concentrations), and varying [inhibitor] (between three and five concentrations) in 10% (v/v) DMSO. NADH fluorescence was monitored every 10 s for 10 min total on a SPARK® multi‐mode multiplate reader (Tecan), as described above, and plotted against time. Slopes of the linear range of each curve were converted to initial velocities, as described above, that were then plotted against [6‐P‐F‐Asp]. A hyperbolic curve was then fitted to the data to obtain the k cat and K m values according to the formula: v o = (V max × [S])/(K m + [S]).
To determine the correlation between the observed and expected initial velocities (Fig. S5A), these values were exported from Kaleidagraph, plotted against one another, and a curve was fit using the formula: y = mx + b. The differences between observed and expected initial velocities (residuals) were then depicted as box‐and‐whisker plots (Fig. S5B). Lineweaver‐Burk plots were generated by graphing 1/v o versus 1/[S] and curves were fit to the data with Kaleidagraph using the formula: 1/v o = (Km/V max).(1/[S]) + (1/V max). The k cat and K m parameters were then converted into α′ values by dividing the k cat of the control (no inhibitor) by either itself (α′= 1) or the k cat of test samples with variable [inhibitor]. Those α′ values were plotted against [inhibitor] and K I values were determined from the equation α = 1 + [I]/K I.
The initial velocities used to generate the Michaelis–Menten plots were also employed to obtain the IC50 vs [S]/K m plots. For a given [S], initial velocities were converted into relative activities and plotted versus [inhibitor]. […] The IC50 values determined from the IC50 vs [S]/K m plots were then used to plot 1/IC50 versus v o/V max. A curve was fit to the data using the formula: y = mx + b. The Y‐intercept of the 1/IC50 versus v o/V max plot is equal to 1/K IC, and the slope, for mixed inhibitors, is equal to 1/K IU – 1/K IC. […] Data analyses were performed as described above (see Tables S1–S7 for curve‐fit errors and goodness‐of‐fit values).

[2] = test system: Salmonella tolC mutant; assay: Growth assay, Salmonella tolC mutant in wild‐type or fra island mutant background; format: cell-based; conditions: early finding; could not be replicated after multiple attempts with stocks from different suppliers (data not shown)
From the text: We sought to examine the possibility that some of the hits in the biochemical HTS were not picked up in the cell‐based assays due to efficient efflux mechanisms in Salmonella. Because TolC is an outer membrane protein channel that is essential for the ability of seven of the 10 inner membrane drug‐efflux transporters to expel structurally diverse molecules, we generated a Salmonella tolC mutant and tested the 121 compounds that we purchased (Sabag‐Daigle, A. & Ahmer, B. M. M., unpublished results). The tests were conducted in parallel using the tolC mutant in a wild‐type or fra island mutant background; the latter lacks the entire fra locus and is incapable of catabolizing F‐Asn and forming 6‐P‐F‐Asp. Thus, any inhibitor specific for FraB (and which was being effluxed in the wild‐type) will inhibit the tolC mutant in a wild‐type but not the fra island mutant background. A caveat is that efflux of compounds may also be achieved via TolC‐independent drug‐efflux pumps.

[3] = Trial 1, 6-P-F-Asp 15.7 µM, S/Km 0.37381, unit from Fig. S11 axis, read-out: IC50 (IC50 versus [S]/Km plots)
[4] = Trial 1, 6-P-F-Asp 31.3 µM, S/Km 0.745238, unit from Fig. S11 axis, read-out: IC50 (IC50 versus [S]/Km plots)
[5] = Trial 1, 6-P-F-Asp 62.5 µM, S/Km 1.488095, unit from Fig. S11 axis, read-out: IC50 (IC50 versus [S]/Km plots)
[6] = Trial 1, 6-P-F-Asp 125 µM, S/Km 2.97619, unit from Fig. S11 axis, read-out: IC50 (IC50 versus [S]/Km plots)
[7] = Trial 1, 6-P-F-Asp 250 µM, S/Km 5.952381, unit from Fig. S11 axis, read-out: IC50 (IC50 versus [S]/Km plots)
[8] = Trial 1, 6-P-F-Asp 500 µM, S/Km 11.90476, unit from Fig. S11 axis, read-out: IC50 (IC50 versus [S]/Km plots)
[9] = Trial 1, 6-P-F-Asp 750 µM, S/Km 17.85714, unit from Fig. S11 axis, read-out: IC50 (IC50 versus [S]/Km plots)
[10] = Trial 1, 6-P-F-Asp 1000 µM, S/Km 23.80952, unit from Fig. S11 axis, read-out: IC50 (IC50 versus [S]/Km plots)
[11] = Trial 1, 6-P-F-Asp 2000 µM, S/Km 47.61905, unit from Fig. S11 axis, read-out: IC50 (IC50 versus [S]/Km plots)
[12] = Trial 1, 6-P-F-Asp 3000 µM, S/Km 71.42857, unit from Fig. S11 axis, read-out: IC50 (IC50 versus [S]/Km plots)
[13] = Trial 2, 6-P-F-Asp 7.38 µM, S/Km 0.175714, unit from Fig. S11 axis, read-out: IC50 (IC50 versus [S]/Km plots)
[14] = Trial 2, 6-P-F-Asp 15.7 µM, S/Km 0.37381, unit from Fig. S11 axis, read-out: IC50 (IC50 versus [S]/Km plots)
[15] = Trial 2, 6-P-F-Asp 31.3 µM, S/Km 0.745238, unit from Fig. S11 axis, read-out: IC50 (IC50 versus [S]/Km plots)
[16] = Trial 2, 6-P-F-Asp 62.5 µM, S/Km 1.488095, unit from Fig. S11 axis, read-out: IC50 (IC50 versus [S]/Km plots)
[17] = Trial 2, 6-P-F-Asp 125 µM, S/Km 2.97619, unit from Fig. S11 axis, read-out: IC50 (IC50 versus [S]/Km plots)
[18] = Trial 2, 6-P-F-Asp 250 µM, S/Km 5.952381, unit from Fig. S11 axis, read-out: IC50 (IC50 versus [S]/Km plots)
[19] = Trial 2, 6-P-F-Asp 500 µM, S/Km 11.90476, unit from Fig. S11 axis, read-out: IC50 (IC50 versus [S]/Km plots)
[20] = Trial 2, 6-P-F-Asp 750 µM, S/Km 17.85714, unit from Fig. S11 axis, read-out: IC50 (IC50 versus [S]/Km plots)
[21] = Trial 2, 6-P-F-Asp 1000 µM, S/Km 23.80952, unit from Fig. S11 axis, read-out: IC50 (IC50 versus [S]/Km plots)
[22] = Trial 2, 6-P-F-Asp 2000 µM, S/Km 47.61905, unit from Fig. S11 axis, read-out: IC50 (IC50 versus [S]/Km plots)
[23] = Trial 2, 6-P-F-Asp 3000 µM, S/Km 71.42857, unit from Fig. S11 axis, read-out: IC50 (IC50 versus [S]/Km plots)
[24] = from Michaelis–Menten analysis of FraB at different inhibitor concentrations, average and standard error from two measurements, read-out: K I

## CC(C)Cc1cc(-c2nn3c(-c4ccccc4Cl)nnc3s2)n[nH]1 [3470:A09, 3‐(2‐chlorophenyl)‐6‐[5‐(2‐methylpropyl)‐1H‐pyrazol‐3‐yl]‐[1,2,4]triazolo[3,4‐b][1,3,4]thiadiazole]
[1]
  change of IC50 values with increasing [S]/K m: modest decrease
  slope in plots of 1/IC50 vs. v o/V max: weakly positive
  mode of inhibition: mixed‐type uncompetitive
[1]; [3]
  IC50: 29.3 µM
[1]; [4]
  IC50: 18.8 µM
[1]; [5]
  IC50: 20.5 µM
[1]; [6]
  IC50: 20.2 µM
[1]; [7]
  IC50: 20.6 µM
[1]; [8]
  IC50: 19.4 µM
[1]; [9]
  IC50: 19.5 µM
[1]; [10]
  IC50: 21.3 µM
[1]; [11]
  IC50: 22.7 µM
[1]; [12]
  IC50: 23.2 µM
[1]; [13]
  IC50: 19 µM
[1]; [14]
  IC50: 13.6 µM
[1]; [15]
  IC50: 12.4 µM
[1]; [16]
  IC50: 12.6 µM
[1]; [17]
  IC50: 11.4 µM
[1]; [18]
  IC50: 11.6 µM
[1]; [19]
  IC50: 11 µM
[1]; [20]
  IC50: 10.9 µM
[1]; [21]
  IC50: 11.3 µM
[1]; [22]
  IC50: 11.1 µM
[1]; [23]
  IC50: 15.3 µM
[1]; [24]
  Ki: 10.5 ± 3.5 µM
[1]; independent trial shown in Fig. S11 panels A-L, read-out: KI from α′ vs [I] plot
  Ki: 7 µM
[1]; single trial shown in Fig. 5, read-out: IC50, mean and standard deviation of all IC50 values in IC50 vs [S]/Km plot
  IC50: 13 ± 3 µM
[1]; single trial shown in Fig. 5, read-out: KI from α′ vs [I] plot
  Ki: 14 µM
[2]
  inhibition of growth of Salmonella tolC, fra‐dependent: initially shown to inhibit the growth of Salmonella tolC in a fra‐dependent manner

## Cc1cccc(Cl)c1-n1sc(=O)n(CC2CC2)c1=O [1524:E12, 2‐(2‐chloro‐6‐methylphenyl)‐4‐(cyclopropylmethyl)‐1,2,4‐thiadiazolidine‐3,5‐dione]
[1]
  change of IC50 values with increasing [S]/K m: exhibit this trend
  slope in plots of 1/IC50 vs. v o/V max: no
  mode of inhibition: pure noncompetitive inhibitors
[1]; Trial 1, 6-P-F-Asp 7.38 µM, S/Km 0.175714, unit from Fig. S11 axis, read-out: IC50 (IC50 versus [S]/Km plots)
  IC50: 5.182 µM
[1]; [3]
  IC50: 4.4596 µM
[1]; [4]
  IC50: 6.2505 µM
[1]; [5]
  IC50: 5.0417 µM
[1]; [6]
  IC50: 4.4301 µM
[1]; [7]
  IC50: 4.497 µM
[1]; [8]
  IC50: 4.5819 µM
[1]; [9]
  IC50: 4.2959 µM
[1]; [10]
  IC50: 4.7019 µM
[1]; [11]
  IC50: 4.852 µM
[1]; [12]
  IC50: 5.5036 µM
[1]; [13]
  IC50: 4.2249 µM
[1]; [14]
  IC50: 5.1146 µM
[1]; [15]
  IC50: 4.8438 µM
[1]; [16]
  IC50: 5.1187 µM
[1]; [17]
  IC50: 5.0178 µM
[1]; [18]
  IC50: 5.2509 µM
[1]; [19]
  IC50: 4.9663 µM
[1]; [20]
  IC50: 4.9173 µM
[1]; [21]
  IC50: 5.0782 µM
[1]; [22]
  IC50: 5.2035 µM
[1]; [23]
  IC50: 5.7824 µM
[1]; average (±SE), from 1/IC50 versus v o/V max plots
  K IU/K IC ratio: 0.95 ± 0.05
[1]; [24]
  Ki: 4 µM
[1]; trial shown in Fig. S11 panels M-X
  IC50, mean and standard deviation of all IC50 values in IC50 vs [S]/Km plot: 5 ± 0.4 µM
[1]; trial shown in Fig. S11 panels Y-AJ
  IC50, mean and standard deviation of all IC50 values in IC50 vs [S]/Km plot: 5 ± 0.6 µM
